This test addresses T1, HPK1 (Homo sapiens, UniProt Q92918).
T1 construct: A HiBiT tag was introduced by CRISPR on the N terminus of HPK1 in Jurkat cells; host or cells: Jurkat cells (ATCC TIB-152), monoclonal line with CRISPR knock-in of HiBiT at the endogenous HPK1 locus
The experiment in a line: HPK1 Cellular HiBit Degradation Assay. It is filed as cell-based. To be noted: HiBiT HPK1 Jurkat cells, 24 hrs; for DC50: concentration at which 50% of HPK1 was remaining, read-out: DC50 Category; for Dmax: Jurkat, maximum degradation vs DMSO vehicle control, read-out: Dmax Category. As for the experimental part: HPK1 Cellular HiBit Degradation Assay
A HiBiT tag was introduced by CRISPR on the N terminus of HPK1 in Jurkat cells (ATCC® TIB-152) to allow quantitation of HPK1 protein levels in a monoclonal human cell line. Cells were plated at 1×10^6 cells/mL, 30 uL/well (3×10^4 cells/well) in complete RPMI 1640 (10% heat inactivated FBS, 1% L-glutamine) in 384-well assay plates (Corning, cat. no. 3570). HPK1 chimeric targeting molecules (CTMs) were added in an 11 point dilution series (11-point, 3.16-fold) with a final assay concentration range of 10 uM to 0.1 nM. The parental Jurkat cell line, with no HiBiT insertion, was included in the assay as a background control. Cell treated with a DMSO vehicle control was used to determine the maximum signal defining 100% HPK1 in the cell. Cells were incubated for 24 hrs at 37° C./5% CO2. Following incubation, 30 uL of complete Nano-Glo HiBiT Lytic Detection Reagent (Promega cat. no. N3040) was added. Cells were incubated for 10 min at room temperature and luminescence was read on an EnVision plate reader (Perkin Elmer, 0.1 sec per well). Viability was assessed in the same plate using Cell Titer Fluor (Promega) and read on an EnVision plate reader to ensure results were not the effect of cytotoxicity. Percent HPK1 remaining per sample was calculated as follows:
[formula] % HPK1 remaining values were plotted as a function of compound concentration and curves were fit using the Prism (GraphPad) equation “log(inhibitor) vs response−Variable slope (four parameters)”. Dmax values were calculated by identifying the lowest % remaining and subtracting from 100. DC50 values were determined by extrapolating from the curve the concentration at which 50% of HPK1 was remaining based on the DMSO control.
HiBiT HPK1 Jurkat cell lines were used to evaluate the total protein levels of HPK1 in a robust human cellular high throughput format. The level of HPK1 remaining following treatment with HPK1 CTMs is reported as Dmax (maximum degradation) achieved at 24 hours when compared to vehicle treated controls. […] These decreases were not a result of cytotoxicity measured by a viability assessment.
In general terms: The HiBiT peptide binds its large partner to form an active luciferase.

T1 sequence (Q92918 whole entry): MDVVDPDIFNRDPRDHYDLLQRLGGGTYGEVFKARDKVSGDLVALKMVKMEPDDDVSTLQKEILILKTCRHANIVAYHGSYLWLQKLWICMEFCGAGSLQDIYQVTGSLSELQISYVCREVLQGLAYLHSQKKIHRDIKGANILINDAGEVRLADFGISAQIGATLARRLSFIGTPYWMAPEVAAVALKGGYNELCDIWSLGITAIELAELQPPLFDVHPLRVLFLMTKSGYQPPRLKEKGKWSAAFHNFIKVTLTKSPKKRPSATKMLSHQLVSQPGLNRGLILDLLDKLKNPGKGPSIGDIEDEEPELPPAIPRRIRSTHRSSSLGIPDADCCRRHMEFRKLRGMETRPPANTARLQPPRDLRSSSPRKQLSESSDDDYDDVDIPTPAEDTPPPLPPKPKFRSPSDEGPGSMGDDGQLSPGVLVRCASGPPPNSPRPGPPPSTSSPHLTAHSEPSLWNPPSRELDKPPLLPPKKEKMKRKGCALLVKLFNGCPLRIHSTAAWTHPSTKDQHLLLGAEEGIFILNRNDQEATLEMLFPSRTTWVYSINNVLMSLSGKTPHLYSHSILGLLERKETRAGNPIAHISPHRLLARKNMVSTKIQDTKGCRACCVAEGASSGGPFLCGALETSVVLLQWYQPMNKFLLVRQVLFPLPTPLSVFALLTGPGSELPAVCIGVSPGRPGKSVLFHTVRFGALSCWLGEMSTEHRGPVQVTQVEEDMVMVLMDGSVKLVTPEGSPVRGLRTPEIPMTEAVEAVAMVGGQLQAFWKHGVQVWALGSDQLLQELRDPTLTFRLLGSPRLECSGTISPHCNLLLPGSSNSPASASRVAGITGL

For `CC(C)n1cnc2cc(-c3ccc4c(c3)N([C@H]3C[C@@H](N5CCCCC5)C3)C(=O)C43CCN(C(=O)[C@@H]4CCN(C(=O)[C@H]5CC[C@H](Nc6cc(C7CCC(=O)NC7=O)ccn6)CC5)C4)CC3)nc(Nc3ccccc3F)c21` (mixture of isomers) [Example 1, (3RS)-3-(2-{[(1R,4R)-4-[(3R)-3-[(6-{4-[(2-fluorophenyl)amino]-3-(propan-2-yl)-3H-imidazo[4,5-c]pyridin-6-yl}-2-oxo-1-[(1S,3S)-3-(piperidin-1-yl)cyclobutyl]-1,2-dihydrospiro[indole-3,4′-piperidin]-1′-yl)carbonyl]pyrrolidine-1-carbonyl]cyclohexyl]amino}pyridin-4-yl)piperidine-2,6-dione], the DC50 (in general, the midpoint of the concentration-degradation curve) fell in the range of 100 to 500 nM and the Dmax (as a rule, the greatest extent of degradation seen) is 70 to 85%.
As to `CC(C)n1cnc2cc(-c3ccc4c(c3)N([C@H]3C[C@@H](N5CCCCC5)C3)C(=O)C43CCN(C(=O)[C@@H]4CCN(C(=O)[C@H]5CC[C@H](Nc6ccc(C7CCC(=O)NC7=O)cc6)CC5)C4)CC3)nc(NC3CC3)c21` (mixture of isomers) [Example 2, (3RS)-3-(4-{[(1R,4R)-4-[(3R)-3-({6-[4-(cyclopropylamino)-3-(propan-2-yl)-3H-imidazo[4,5-c]pyridin-6-yl]-2-oxo-1-[(1S,3S)-3-(piperidin-1-yl)cyclobutyl]-1,2-dihydrospiro[indole-3,4′-piperidin]-1′-yl}carbonyl)pyrrolidine-1-carbonyl]cyclohexyl]amino}phenyl)piperidine-2,6-dione], the DC50 is less than 100 nM and the Dmax lay in the range of 70 to 85%.
`CC(C)n1cnc2cc(-c3ccc4c(c3)N([C@H]3C[C@@H](N5CCCCC5)C3)C(=O)C43CCN(C(=O)[C@@H]4CCN(C(=O)[C@H]5CC[C@H](Nc6ccc(C7CCC(=O)NC7=O)cc6)CC5)C4)CC3)nc(Nc3ccccc3F)c21` (mixture of isomers) [Example 3, (3RS)-3-(4-{[(1R,4R)-4-[(3R)-3-[(6-{4-[(2-fluorophenyl)amino]-3-(propan-2-yl)-3H-imidazo[4,5-c]pyridin-6-yl}-2-oxo-1-[(1S,3S)-3-(piperidin-1-yl)cyclobutyl]-1,2-dihydrospiro[indole-3,4′-piperidin]-1′-yl)carbonyl]pyrrolidine-1-carbonyl]cyclohexyl]amino}phenyl)piperidine-2,6-dione]: the DC50 was less than 100 nM and the Dmax was more than 85%.
As to `CC(C)n1cnc2cc(-c3ccc4c(c3)N([C@H]3C[C@@H](N5CCCCC5)C3)C(=O)C43CCN(C(=O)[C@@H]4CCN(C(=O)[C@H]5CC[C@H](Nc6ccc(C7CCC(=O)NC7=O)cn6)CC5)C4)CC3)nc(NC3CC3)c21` (mixture of isomers) [Example 5, (3RS)-3-(6-{[(1R,4R)-4-[(3R)-3-({6-[4-(cyclopropylamino)-3-(propan-2-yl)-3H-imidazo[4,5-c]pyridin-6-yl]-2-oxo-1-[(1S,3S)-3-(piperidin-1-yl)cyclobutyl]-1,2-dihydrospiro[indole-3,4′-piperidin]-1′-yl}carbonyl)pyrrolidine-1-carbonyl]cyclohexyl]amino}pyridin-3-yl)piperidine-2,6-dione], the DC50 was 100 to 500 nM and the Dmax was in the range of 70 to 85%.
For `CC(C)n1cnc2cc(-c3ccc4c(c3)N([C@H]3C[C@@H](N5CCCCC5)C3)C(=O)C43CCN(C(=O)[C@@H]4CCN(C(=O)[C@H]5CC[C@H](Nc6ccc(C7CCC(=O)NC7=O)cn6)CC5)C4)CC3)nc(Nc3ccccc3F)c21` (mixture of isomers) [Example 6, (3RS)-3-(6-{1[(1R,4R)-4-[(3R)-3-[(6-{4-[(2-fluorophenyl)amino]-3-(propan-2-yl)-3H-imidazo[4,5-c]pyridin-6-yl}-2-oxo-1-[(1S,3S)-3-(piperidin-1-yl)cyclobutyl]-1,2-dihydrospiro[indole-3,4′-piperidin]-1′-yl)carbonyl]pyrrolidine-1-carbonyl]cyclohexyl]amino}pyridin-3-yl)piperidine-2,6-dione], the DC50 lay in the range of 100 to 500 nM and the Dmax is 70 to 85%.

(Values after patent publication US12091426B2, “Bifunctional degraders of hematopoietic progenitor kinase and therapeutic uses thereof” (Nurix Therapeutics, Inc., priority 2021, dated 2024).)
